According to US20060110385A1, “Means and methods for diagnosing and treating affective disorders” (Affectis Pharmaceuticals AG, priority 2003, published 2006):
“Also recorded” adds a separate entry of the source.

Experiments:
[1] = target: T1, P2X7R (Mus musculus, UniProt Q9Z1M0); assay: Entry of ethidium bromide into HT-22 cells; type: cell-based; conditions: HT-22 cells, 60 minutes, 10^−4M ethidium bromide; 1 μM to 1 mM tested
T1 construct: endogenous in cells; host or cells: HT-22 (immortalised mouse hippocampal cell line)
T1 sequence (Q9Z1M0 1-595): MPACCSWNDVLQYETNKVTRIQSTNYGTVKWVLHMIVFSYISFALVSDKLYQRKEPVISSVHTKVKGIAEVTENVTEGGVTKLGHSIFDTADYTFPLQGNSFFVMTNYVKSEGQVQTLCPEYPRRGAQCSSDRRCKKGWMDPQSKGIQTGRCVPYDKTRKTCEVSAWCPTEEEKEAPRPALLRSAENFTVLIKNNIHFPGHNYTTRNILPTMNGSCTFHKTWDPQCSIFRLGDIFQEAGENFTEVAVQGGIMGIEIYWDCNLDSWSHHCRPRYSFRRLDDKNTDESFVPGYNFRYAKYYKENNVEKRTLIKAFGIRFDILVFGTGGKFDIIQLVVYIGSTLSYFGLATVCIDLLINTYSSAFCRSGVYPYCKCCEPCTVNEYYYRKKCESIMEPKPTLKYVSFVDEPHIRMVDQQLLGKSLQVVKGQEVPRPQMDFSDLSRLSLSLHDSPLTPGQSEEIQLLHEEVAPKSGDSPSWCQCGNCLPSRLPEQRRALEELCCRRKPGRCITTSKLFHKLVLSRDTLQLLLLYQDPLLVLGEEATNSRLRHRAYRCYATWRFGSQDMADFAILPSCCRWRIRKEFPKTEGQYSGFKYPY
From the text: Yet another method of measuring P2X7R activity involves the entry of ethidium bromide into P2X7R expressing cells. Activation of P2X7R by an agonist allows the entry of ethidium bromide which binds nuclear DNA and emits a fluorescence signal. Alternatively, the propidium dye YOPRO-1 can be substituted for ethidium bromide. An increase in fluorescence can be used as a measure of P2X7 receptor activation. Therefore, the assay can be used to test and quantify the effect of an agent or compound with agonist properties on P2X7R. In the present example, 10^3 HT-22 cells were seeded per well in a 96-well flat bottom microtitre plates and incubated at 37° C./5% CO2 in DMEM medium containing 10% FCS until the cells attached to the culture surface. […] The number of fluorescent cells which have integrated the ethidium bromide to the DNA can then be counted using a fluorescent microscope (Zeiss, Germany). […] Alternatively, ethidium bromide fluorescence can be measured using a Perkin-Elmer fluorescent plate reader (excitation 520 nm, emission 595 nm, slit widths: Ex 15 nm, Em 20 nm). From the readings obtained, a pIC50 figure can be calculated for each candidate agent or compound. […] The specificity of an agonist for P2X7R can be evaluated by pre-incubation of the cells for 60 minutes with 100 μM o-ATP before adding the agonist and ethidium bromide dye.

[2] = target: T1, P2X7R; assay: Calcium influx into HT-22 cells (Oregon green AM ester); type: cell-based; conditions: 100 μM BzATP, 15 minutes
From the text: Since P2X7R is an ATP-gated ion channel which allows the entry of calcium and sodium ions into cells, a method for identifying P2X7R agonist was established by monitoring calcium influx into HT-22 cells. […] Calcium movement into the cells was visualised under a fluorescent microscope with a fluorescein filter (wavelength 492/517 nm). Oregon green AM ester is a fluorescent dye that binds to intracellular calcium.
Activation of P2X7R by the agonist was inhibited by oATP (FIG. 18) as illustrated by the absence of green fluorescence in the cells.

For “2′-3′-O-(4-Benzoylbenzoyl)adenosine 5′-triphosphate [BzATP]”, the “concentration that increased the number of fluorescent nuclei” value [1] was “above 100 μM” and the “calcium influx (green fluorescence)” value [2] was “Increase calcium influx; also recorded: increase in green fluorescence”.
